Where two headings read alike, the source gives them in different places.
Legend:
Assay type in all cases: cell-based
[1] = test system: histone acetylation in P. falciparum 3D7-A10; experiment: Histone acetylation Western blot, wild-type 3D7-A10; details: trophozoites, 3 h exposure
Procedure: Synchronous trophozoite-stage (24-32hr post-invasion) cultures at 3–5% parasitemia and 2% hematocrit in complete medium were exposed to test compounds for 3 hr at 37°C. […] DMSO was tested at 0.1% as the vehicle-only control. Following drug exposure, parasites were isolated via saponin lysis ice-cold 0.1% saponin in phosphate-buffered saline (PBS). Isolated parasites were washed 3x in ice-cold PBS containing protease inhibitor cocktail (cOmplete mini, Roche) and lysed in 1x Laemmli Sample Buffer (Biorad) with 5% beta-mercaptoethanol (Sigma-Aldrich). Samples were heated at 99°C for 10 min before centrifugation. Equal quantities of solute were separated on Protean TGX Precast Gels (4–20% gradient) in Tris-SDS-glycine buffer, transferred to nitrocellulose membrane by iblot (Invitrogen), and blocked for 1h in tris-buffered saline (TBS) with 5% skim milk powder. Blocked membranes were probed with antibodies recognising tetra-acetylated H4 (H4ac4, Sigma-Aldrich 06–866), H4K8ac (CST #2594), H3K9ac (CST #9649) or H3 (CST #4499), at 1:1000 dilution, and PfBiP ([Shonhai et al., 2007]) (at 1:5000 dilution) in 3% milk powder TBS with 0.1% Tween 20 at 4°C overnight and with 800CW goat α-rabbit IgG (Licor) at 1:10,000 dilution. Membranes were visualised using a Licor Odyssey CLX imaging system and quantified using ImageJ.

[2] = test system: P. falciparum MMV019721-resistant lines (3D7-A10 or Dd2-B2 derived); experiment: Dose-response assay of MMV019721-selected resistant lines (bulk cultures and clones); details: Plasmodium falciparum
Procedure: (§1) For in vitro–selected lines, drug susceptibility was measured by SYBR Green I–based assay ([Johnson et al., 2007]; [Smilkstein et al., 2004]). Ring-stage parasites were cultured for 72 hr at 1% hematocrit and 1% starting parasitemia in 384-well black clear-bottom plates containing test compounds plated in triplicate in 12-point serial dilutions. Lysis buffer (0.16% w/v saponin, 1.6% Triton X-100, 5 mM EDTA, and 20 mM Tris-HCl, pH 7.4) with SYBR Green I fluorescent dye (Invitrogen) was added, and fluorescence readings were taken (excitation at 494 nm, emission at 530 nm). Alternatively, Dd2-B2 ring-stage cultures at 0.3% parasitemia and 1% hematocrit were exposed for 72 hr to a range of ten drug concentrations that were 2-fold serially diluted in duplicates along with drug-free controls. Parasite survival was assessed by flow cytometry on an Accuri C6 (BD Biosciences) using SYBR Green and MitoTracker Deep Red FM (Life Technologies) as nucleic acid stain and vital dyes respectively. EC50 values were calculated using a nonlinear regression curve fit in Prism Software version 8 (GraphPad).
(§2) Bulk cultures were tested for reduced drug susceptibility and individual clones were isolated by limiting dilution.

[3] = test system: P. falciparum MMV084978-resistant clones (Dd2-B2 derived); experiment: Dose-response assay of MMV084978-selected resistant clones; details: Plasmodium falciparum
Procedure: as §1, with “Ring-stage” for “For in vitro–selected lines, drug susceptibility was measured by SYBR Green I–based assay ([Johnson et al., 2007]; [Smilkstein et al., 2004]). Ring-stage”, “Lysis buffer (0.16% w/v saponin, 1.6% Triton X-100, 5 mM EDTA, and 20 mM Tris-HCl, pH 7.4) with SYBR Green I fluorescent dye (Invitrogen) was added, and fluorescence readings were taken (excitation at 494 nm, emission at 530 nm).” left out
as §2

O=C1C(O)=C([C@H]2CC[C@H](c3ccc(Cl)cc3)CC2)C(=O)c2ccccc21 [Atovaquone, reference compound]
acetylation of H4K8ac, H3K9ac and tetra-acetylated H4 (H4Ac4) histone markers relative to DMSO [1]: no effect

CCN(CC)S(=O)(=O)c1ccc(Cl)c(C(=O)Nc2ccc3nc(C)sc3c2)c1 [MMV019721]
EC50 ([2]; MDR1, read-out: MMV019721 mean EC50 (nM) ± SD (n), selection 9, Dd2-B2, clone B3, AcAS CNV, MDR1 CNV, AP2-I CNV): 1400 ± 200 nM
EC50 ([2]; read-out: MMV019721 mean EC50 (nM) ± SD (n), selection 1, Dd2-B2, clone E4, AcAS:A597V): 7700 ± 570 nM
EC50 ([2]; read-out: MMV019721 mean EC50 (nM) ± SD (n), selection 2, Dd2-B2, clone E10, AcAS:A597V): 9200 ± 810 nM
EC50 ([2]; read-out: MMV019721 mean EC50 (nM) ± SD (n), selection 2, Dd2-B2, clone F12, AcAS:A597V, n=1): 8400 nM
EC50 ([2]; read-out: MMV019721 mean EC50 (nM) ± SD (n), selection 3, Dd2-B2, clone F2, AcAS:A597V): 9000 ± 490 nM
EC50 ([2]; read-out: MMV019721 mean EC50 (nM) ± SD (n), selection 3, Dd2-B2, clone F10, AcAS:A597V): 11000 ± 1300 nM
EC50 ([2]; read-out: MMV019721 mean EC50 (nM) ± SD (n), selection 4, 3D7-A10, Bulk, sequencing not determined): 460 ± 100 nM
EC50 ([2]; read-out: MMV019721 mean EC50 (nM) ± SD (n), selection 5, 3D7-A10, clone 2B1C, AcAS:T648M): 7700 ± 1200 nM
EC50 ([2]; read-out: MMV019721 mean EC50 (nM) ± SD (n), selection 5, 3D7-A10, clone 2B1F, AcAS:T648M): 7500 ± 1400 nM
EC50 ([2]; read-out: MMV019721 mean EC50 (nM) ± SD (n), selection 5, 3D7-A10, clone 2B12B, AcAS:T648M): 7400 ± 500 nM
EC50 ([2]; read-out: MMV019721 mean EC50 (nM) ± SD (n), selection 6, 3D7-A10, clone 3B1D, AcAS:T648M): 7100 ± 1700 nM
EC50 ([2]; read-out: MMV019721 mean EC50 (nM) ± SD (n), selection 6, 3D7-A10, clone 3B6H, AcAS:T648M): 6800 ± 420 nM
EC50 ([2]; read-out: MMV019721 mean EC50 (nM) ± SD (n), selection 6, 3D7-A10, clone 3B11G, AcAS:T648M): 6800 ± 1100 nM
EC50 ([2]; read-out: MMV019721 mean EC50 (nM) ± SD (n), selection 7, 3D7-A10, clone 4B3D, AcAS:T648M): 7700 ± 1700 nM
EC50 ([2]; read-out: MMV019721 mean EC50 (nM) ± SD (n), selection 7, 3D7-A10, clone 4B4H, AcAS:T648M): 8400 ± 680 nM
EC50 ([2]; read-out: MMV019721 mean EC50 (nM) ± SD (n), selection 7, 3D7-A10, clone 4B8B, AcAS:T648M): 7500 ± 1100 nM
EC50 ([2]; read-out: MMV019721 mean EC50 (nM) ± SD (n), selection 8, Dd2-B2, clone A3, AcAS CNV, AP2-I CNV): 1400 ± 90 nM
EC50 ([2]; read-out: MMV019721 mean EC50 (nM) ± SD (n), selection 10, Dd2-B2, clone C3, ACS11 INDEL(Leu24-Asp30), AP2-I CNV): 2000 ± 170 nM
EC50 ([2]; read-out: MMV019721 mean EC50 (nM) ± SD (n), selection 11, 3D7-A10, clone 1E9, sequencing not determined): 3000 ± 250 nM
EC50 ([2]; read-out: MMV019721 mean EC50 (nM) ± SD (n), selection 11, 3D7-A10, clone 1E12, AcAS: Ala652Thr): 2700 ± 270 nM
EC50 ([2]; read-out: MMV019721 mean EC50 (nM) ± SD (n), selection 11, 3D7-A10, clone 1G4, sequencing not determined): 2000 ± 600 nM
EC50 ([2]; read-out: MMV019721 mean EC50 (nM) ± SD (n), selection 11, 3D7-A10, clone 1G8, ACS11:Thr767Ile): 1700 ± 340 nM
EC50 ([2]; read-out: MMV019721 mean EC50 (nM) ± SD (n), selection 12, 3D7-A10, clone 2B4, AcAS:T648M): 8500 ± 840 nM
EC50 ([2]; read-out: MMV019721 mean EC50 (nM) ± SD (n), selection 12, 3D7-A10, clone 2C6, sequencing not determined): 2200 ± 770 nM
EC50 ([2]; read-out: MMV019721 mean EC50 (nM) ± SD (n), selection 12, 3D7-A10, clone 2D11, sequencing not determined): 7100 ± 1300 nM
EC50 ([2]; read-out: MMV019721 mean EC50 (nM) ± SD (n), selection 12, 3D7-A10, clone 2G6, AcAS: Ala652Thr): 4000 ± 630 nM
EC50 ([2]; read-out: MMV019721 mean EC50 (nM) ± SD (n), selection 13, 3D7-A10, clone 3B9, sequencing not determined): 2300 ± 680 nM
EC50 ([2]; read-out: MMV019721 mean EC50 (nM) ± SD (n), selection 13, 3D7-A10, clone 3C7, sequencing not determined): 2300 ± 530 nM
EC50 ([2]; read-out: MMV019721 mean EC50 (nM) ± SD (n), selection 13, 3D7-A10, clone 3D10, ACS11: Asp269Gly): 1500 ± 82 nM
EC50 ([2]; read-out: MMV019721 mean EC50 (nM) ± SD (n), selection 13, 3D7-A10, clone 3G8, ACS11: Ser74Leu): 2200 ± 570 nM
EC50 ([2]; read-out: PfAcAS:A597V-resistant clone EC50, range over A597V clones): 7700 to 11000 nM
EC50 ([2]; read-out: PfAcAS:T648M EC50, range over T648M clones): 6800 to 8400 nM

O=C(NNC(=O)c1csnn1)c1ccc(Cl)cc1 [MMV084978]
EC50 ([3]; DD2, read-out: MMV084978 mean EC50 (nM) ± SD (n), selection 1, Dd2-B2, clone A7, AcAS:A597V): > 9600 nM
EC50 ([3]; DD2, read-out: MMV084978 mean EC50 (nM) ± SD (n), selection 1, Dd2-B2, clone C11, sequencing not determined): 2500 ± 42 nM
EC50 ([3]; DD2, read-out: MMV084978 mean EC50 (nM) ± SD (n), selection 1, Dd2-B2, clone E5, sequencing not determined): 2600 ± 47 nM
EC50 ([3]; DD2, read-out: MMV084978 mean EC50 (nM) ± SD (n), selection 1, Dd2-B2, clone F1, sequencing not determined): 2800 ± 260 nM
EC50 ([3]; DD2, read-out: MMV084978 mean EC50 (nM) ± SD (n), selection 1, Dd2-B2, clone F9, sequencing not determined): 2100 ± 53 nM
EC50 ([3]; DD2, read-out: MMV084978 mean EC50 (nM) ± SD (n), selection 1, Dd2-B2, clone G8, AcAS:A652S): 2500 ± 24 nM
EC50 ([3]; DD2, read-out: MMV084978 mean EC50 (nM) ± SD (n), selection 2, Dd2-B2, clone B8, sequencing not determined): 2400 ± 33 nM
EC50 ([3]; DD2, read-out: MMV084978 mean EC50 (nM) ± SD (n), selection 2, Dd2-B2, clone C4, sequencing not determined): 2400 ± 1.7 nM
EC50 ([3]; DD2, read-out: MMV084978 mean EC50 (nM) ± SD (n), selection 2, Dd2-B2, clone E9, AcAS:A652S): 2600 ± 76 nM
EC50 ([3]; DD2, read-out: MMV084978 mean EC50 (nM) ± SD (n), selection 2, Dd2-B2, clone F8, sequencing not determined): 2600 ± 7 nM
EC50 ([3]; DD2, read-out: MMV084978 mean EC50 (nM) ± SD (n), selection 2, Dd2-B2, clone H12, AcAS:Y607C): 970 ± 41 nM
